Results on four substances are retold here after patent US11478526B2, “Methods of reducing neuroinflammation or toxicity induced by amyloid beta (abeta) using glucocorticoid induced leucine zipper (GILZ) analog peptides” (INDIANA UNIVERSITY RESEARCH AND TECHNOLOGY CORPORATION, priority 2016, dated 2022).

Read-outs that look alike come from different tables or passages of the source.

What all share (format): cell-based, human
Data set [1] deals with U373 cells. The method, then:
Lactate dehydrogenase (LDH) assay: To detect direct GA-induced cell lysis we performed LDH release assays (Roche Molecular Diagnostics). […] Approximately 5×10^4 U373 cells/well were cultured in 96-well plates in the presence of increasing concentrations of individual GA or control peptide from 0.5 μM to 500 μM. Cells treated with 2% triton-X 100 (Sigma Aldrich, St. Louis, Mo.) for 10 minutes served as positive control. Untreated cells served as controls for spontaneous LDH-release. Specific LDH-release was calculated according to the following formula: LDH-release %=100*(GA or control peptide treated cells—untreated cells)/(positive control-untreated cells). The IC50 values were extrapolated by logarithmic estimation. The LD50 in mg/kg was predicted using the formula, Log (LD50)=0.506×(log IC50)+0.475.
Effects of PGA on membrane integrity and apoptosis: The top five PGA were covalently synthesized with the cell penetrating TAT (transcriptional transactivation) peptide to facilitate intracellular delivery (Genescript, N.J.). Membrane integrity of U373 microglial cells exposed to increasing concentration of each PGA from 0.5 μm to 500 μM was assessed by the leakage of intracellular lactate dehydrogenase (LDH) into culture medium (Roche, Ind.).

Data set [2] has as its system U373 cells. As to the kind of experiment: Annexin-V and propidium iodide apoptosis by flow cytometry. As to conditions: score 1/0. As to the method:
Detection apoptosis by flow cytometry: To further assess cell cytotoxicity, the apoptotic effects of individual GA or control peptide was evaluated by the Annexin-V and propidium iodide (PI) dual staining method (Annexin-V-Fluos staining kit, Roche Diagnostics, Mannheim, Germany). As opposed to apoptotic cells, necrotic cells with ruptured cell membrane take up PI, the DNA binding dye. Thus, cells which take up both fluorochromes are a mixture of apoptotic and necrotic cells, whereas cells that exclude PI but bind Annexin V are (early) apoptotic cells. U373 cells cultured with varying concentrations of individual GA or control peptide (0.5 μM to 50 μM) for 24 hours were centrifuged and suspended in 100 μl of Annexin V/PI labelling solution (20 μl each of Annexin-V-Fluos labelling reagent and PI in 1 ml of binding buffer) for 15 min at room temperature. After washing the cells were resuspended in PBS:1% paraformaldehyde and analyzed using a FACScan flow cytometer (BD Biosciences, San Jose, Calif.).
(In general: In flow cytometry, cells or beads pass a laser one at a time.)

The test system of data set [3] is Aβ1-42 exposed HFB cells. As to the kind of experiment: Cytokines in culture medium of Aβ1-42 exposed HFB. As to conditions: PGA at IC50 concentration.
For data set [4], the system named is Aβ1-42 exposed HFB cells. As to the kind of experiment: Cytokines in culture medium of Aβ1-42 exposed HFB. Conditions: 50 μM peptide. As to the method: Fetal brain materials (10-20 g) were shipped overnight in chilled Hibernate-E medium (Invitrogen) supplemented with B27 (Invitrogen), GlutaMAX (Invitrogen) and antibiotic-antimycotic solution (Cellgro). HFB were prepared and cultured as described. Briefly, cells were cultured in Neurobasal medium (Invitrogen) without phenol red supplemented with 1×B27, […] GlutaMAX, 1×antibiotic cocktail, 5 ng/mL recombinant fibroblast growth factor 2 (bFGF) (Invitrogen), and 2 μL/mL Normocin (InVivoGen, San Diego, Calif., USA). Cells were counted and seeded onto poly-D-lysine (Sigma-Aldrich) coated 24-well plates (Corning, Lowell, Mass., USA) at 1.5×10^5 cells per well and maintained at 37° C. in a 5% CO2 incubator. Half media changes were performed every 4th day of culture and morphology was monitored via phase contrast microscopy. Culture medium was removed from cells on day 17 (DIV17) and replaced with Neurobasal medium with B27. Appropriate wells were then added vehicle, or carrier peptide or individual GA or control peptide (at 50 μM) for 30 min followed by exposure to Aβ1-42 at a final concentration of 10 μM/well and incubated for 4 hours or 48 hours. Cells and conditioned media were harvested and stored for further analysis. Relative ATP concentration was measured using the CTG kit (Promega). Data is presented as ΔRLU=RLU of Aβ1-42 exposed cells-RLU unexposed cells. Conditioned media collected were assessed for specific cytokines using the OptEIA kits (BD Biosciences). Nuclear and cytoplasmic fractions were extracted using the CelLytic™ NuCLEAR™ Extraction Kit (Sigma) following manufacturer's protocol. Five microgram of nuclear extracts was incubated in a 96-well plate coated with oligonucleotides containing the NF-κβ consensus nucleotide sequence (5′-[…]-3′) (SEQ ID NO: 30). The activated NF-κβ bound to DNA was detected by anti-p65 antibody followed by a peroxidase coupled secondary antibody and substrate using the TransAM kit protocol (Active Motif). Nuclear extracts of Raji cells was used as the positive control.
Select PGA protects against Aβ1-42 induced toxicity, prevents p65 activation and cytokine response in human fetal brain (HFB) cells. […] Viability in terms of relative luminescent Units (RLU) was quantified using a Glowmax luminometer (Promega, Wis.). Data are presented as ARLU=RLU of Aβ1-42 exposed cells-RLU of unexposed cells. […] The mean RLU of vehicle treated HFB varied between 7352.75+/−1265.2 and 16157.5+/−4950. […] The culture supernatants were assessed for cytokines by ELISA (R&D Systems, Minn.). […] Primary HFB cultured similarly and harvested at the end of 4 hours was assessed for nuclear p65 using TransAM kit for NF-κB p65 (Active Motif, Calif.).

Setting [5] is: Example 9, PGA synthesized with TAT, read-out: IC50 of LDH release extrapolated from regression analysis.
Setting [6] is: concentration stated for use in HFNC cultures, Example 11, read-out: IC50 concentration.

On to Ac-EPAPESPQV-NH2 [PGA-4], for which the IC50 in the data set on U373 cells [1] (setting [5]) was 1.5 µM; in the data set with U373 cells [1] (setting [6]), 102 µM. Moreover, the “% apoptosis at LD50” value in the data set on U373 cells [2] is given as 1 (<25). Besides, the “AIL-1p concentration in culture supernatant (not shown)” value in the data set on Aβ1-42 exposed HFB cells [3] was “significantly lower”. For the same substance, the “AIL-6 concentration in culture supernatant” value with Aβ1-42 exposed HFB cells [3] is on record as “significantly lower”.
For Ac-EPAPLAPYG-NH2 [GA-1], in the data set on Aβ1-42 exposed HFB cells [4], the “relative concentration of IL-6 in culture medium” value was “significantly lower” and the “relative concentration of IL-10 in culture medium” value was “significantly lower”.
Take Ac-EPAPESPQV-NH2 [GA-2]: in the data set on Aβ1-42 exposed HFB cells [4], the “relative concentration of IL-6 in culture medium” value is “significantly lower” and the “relative concentration of IL-10 in culture medium” value is given as “significantly lower”.
On to Ac-EPAPLAPYG-NH2 [PGA-2], for which the IC50 with U373 cells [1] (setting [5]) is 1.95 µM; with U373 cells [1] (setting [6]), 169 µM. Also, the “% apoptosis at LD50” value in the data set with U373 cells [2] is 1 (<25). For the same substance, the “AIL-1p concentration in culture supernatant (not shown)” value with Aβ1-42 exposed HFB cells [3] is “significantly lower”. Besides, in the data set on Aβ1-42 exposed HFB cells [3], the “AIL-6 concentration in culture supernatant” value is recorded as “significantly lower”.
